Tested on: participants with SSc-RP
Test: Average duration of weekly RP attacks (minutes)
Format: in vivo, human
Description: The absolute change in average duration of weekly RP attacks from baseline to the end of each dosing period was and will be a secondary outcome variable. The sponsor-developed participant-informed diary was and will be used to record data. Average duration of weekly RP attacks is defined as the total duration of RP attacks divided by total number of RP attacks within the last 7 days of each dosing period. Total duration of RP attacks during the last 7 days of screening period divided by the total number of RP attacks will be used as baseline for the analysis of all periods. The variable will be calculated similar to frequency data as before.

[1] = Pooled Cilnidipine 20 mg and Cilnidipine 20 mg + Tadalafil 5 mg, Excluding Outliers, by Baseline RCS, subgroup 2, ITT Population - Part A
[2] = Pooled Cilnidipine 20 mg and Cilnidipine 20 mg + Tadalafil 5 mg, ITT Part A
[3] = Pooled Cilnidipine 20 mg and Cilnidipine 20 mg + Tadalafil 5 mg, by Baseline RCS, subgroup 1, ITT Population - Part A
[4] = Pooled Cilnidipine 20 mg and Cilnidipine 20 mg + Tadalafil 5 mg, by Baseline RCS, subgroup 2, ITT Population - Part A
[5] = Pooled Cilnidipine, n=3, Excluding Outliers, ITT Part A
[6] = Pooled Cilnidipine, n=3, ITT Part A
[7] = Pooled Cilnidipine, Baseline RCS subgroup 1 (unnamed), ITT Part A
[8] = Pooled Cilnidipine, Excluding Outliers, Baseline RCS subgroup 1 (unnamed), ITT Part A
[9] = Pooled Cilnidipine, Excluding Outliers, ITT Population - Part A
[10] = Pooled Cilnidipine, Excluding Outliers, by Baseline RCS, subgroup 1, ITT Population - Part A
[11] = Pooled Cilnidipine, by Baseline RCS, subgroup 1, ITT Population - Part A

## COCCOC(=O)C1=C(C)NC(C)=C(C(=O)OC/C=C/c2ccccc2)C1c1cccc([N+](=O)[O-])c1 (centres unmarked) [Cilnidipine, cilnidipine]
[1]
  Average Duration of Weekly RP Attacks (All Attacks) Change from Baseline, Median: -19.09 min
  Average Duration of Weekly RP Attacks (All Attacks) Percent Change from Baseline, Mean: −23.33%
  Average Duration of Weekly RP Attacks (All Attacks) Percent Change from Baseline, Median: −23.33%
  Average Duration of Weekly RP Attacks (All Attacks), Mean: 62.73 min
  Average Duration of Weekly RP Attacks (All Attacks), Median: 62.73 min
[2]
  Average Duration of Weekly RP Attacks (All Attacks) Change from Baseline, Mean: -4.77 min
  Average Duration of Weekly RP Attacks (All Attacks) Change from Baseline, Median: -2.73 min
  Average Duration of Weekly RP Attacks (All Attacks) Percent Change from Baseline, Mean: −13.86%
  Average Duration of Weekly RP Attacks (All Attacks) Percent Change from Baseline, Median: −2.74%
  Average Duration of Weekly RP Attacks (All Attacks), Mean: 27.61 min
  Average Duration of Weekly RP Attacks (All Attacks), Median: 22.36 min
[3]
  Average Duration of Weekly RP Attacks (All Attacks) Change from Baseline, Mean: 0.00 min
  Average Duration of Weekly RP Attacks (All Attacks) Change from Baseline, Median: 2.16 min
  Average Duration of Weekly RP Attacks (All Attacks) Percent Change from Baseline, Mean: −10.70%
  Average Duration of Weekly RP Attacks (All Attacks) Percent Change from Baseline, Median: 17.86%
  Average Duration of Weekly RP Attacks (All Attacks), Mean: 15.91 min
  Average Duration of Weekly RP Attacks (All Attacks), Median: 14.27 min
[4]
  Average Duration of Weekly RP Attacks (All Attacks) Change from Baseline, Mean: -19.09 min
  Average Duration of Weekly RP Attacks (All Attacks) Change from Baseline, Median: -19.09 min
  Average Duration of Weekly RP Attacks (All Attacks) Percent Change from Baseline, Mean: −23.33%
  Average Duration of Weekly RP Attacks (All Attacks) Percent Change from Baseline, Median: −23.33%
  Average Duration of Weekly RP Attacks (All Attacks), Mean: 62.73 min
  Average Duration of Weekly RP Attacks (All Attacks), Median: 62.73 min
Pooled Cilnidipine (n = 7)
  Duration: 20%
[5]
  Average Duration of Weekly Symptomatic RP Attacks, Change from Baseline, Mean: -7.67 min
  Average Duration of Weekly Symptomatic RP Attacks, Change from Baseline, Median: -10.33 min
  Average Duration of Weekly Symptomatic RP Attacks, Mean: 21.70 min
  Average Duration of Weekly Symptomatic RP Attacks, Median: 30.45 min
  Average Duration of Weekly Symptomatic RP Attacks, Percent Change from Baseline, Mean: −32.23%
  Average Duration of Weekly Symptomatic RP Attacks, Percent Change from Baseline, Median: −34.60%
[6]
  Average Duration of Weekly Symptomatic RP Attacks, Change from Baseline, Mean: -7.67 min
  Average Duration of Weekly Symptomatic RP Attacks, Change from Baseline, Median: -10.33 min
  Average Duration of Weekly Symptomatic RP Attacks, Mean: 21.70 min
  Average Duration of Weekly Symptomatic RP Attacks, Median: 30.45 min
  Average Duration of Weekly Symptomatic RP Attacks, Percent Change from Baseline, Mean: −32.23%
  Average Duration of Weekly Symptomatic RP Attacks, Percent Change from Baseline, Median: −34.60%
[7]
  Average Duration of Weekly Symptomatic RP Attacks, Change from Baseline, Mean: -7.67 min
  Average Duration of Weekly Symptomatic RP Attacks, Change from Baseline, Median: -10.33 min
  Average Duration of Weekly Symptomatic RP Attacks, Mean: 21.70 min
  Average Duration of Weekly Symptomatic RP Attacks, Median: 30.45 min
  Average Duration of Weekly Symptomatic RP Attacks, Percent Change from Baseline, Mean: −32.23%
  Average Duration of Weekly Symptomatic RP Attacks, Percent Change from Baseline, Median: −34.60%
[8]
  Average Duration of Weekly Symptomatic RP Attacks, Change from Baseline, Mean: -7.67 min
  Average Duration of Weekly Symptomatic RP Attacks, Change from Baseline, Median: -10.33 min
  Average Duration of Weekly Symptomatic RP Attacks, Mean: 21.70 min
  Average Duration of Weekly Symptomatic RP Attacks, Median: 30.45 min
  Average Duration of Weekly Symptomatic RP Attacks, Percent Change from Baseline, Mean: −32.23%
  Average Duration of Weekly Symptomatic RP Attacks, Percent Change from Baseline, Median: −34.60%
[9]
  Average Duration of Weekly RP Attacks (All Attacks) Change from Baseline, Mean: -3.55 min
  Average Duration of Weekly RP Attacks (All Attacks) Change from Baseline, Median: -7.63 min
  Average Duration of Weekly RP Attacks (All Attacks) Percent Change from Baseline, Mean: −23.71%
  Average Duration of Weekly RP Attacks (All Attacks) Percent Change from Baseline, Median: −21.20%
  Average Duration of Weekly RP Attacks (All Attacks), Mean: 21.66 min
  Average Duration of Weekly RP Attacks (All Attacks), Median: 30.45 min
[10]
  Average Duration of Weekly RP Attacks (All Attacks) Change from Baseline, Mean: -3.55 min
  Average Duration of Weekly RP Attacks (All Attacks) Change from Baseline, Median: -7.63 min
  Average Duration of Weekly RP Attacks (All Attacks) Percent Change from Baseline, Mean: −23.71%
  Average Duration of Weekly RP Attacks (All Attacks) Percent Change from Baseline, Median: −21.20%
  Average Duration of Weekly RP Attacks (All Attacks), Mean: 21.66 min
  Average Duration of Weekly RP Attacks (All Attacks), Median: 30.45 min
Pooled Cilnidipine, ITT Part A
  Average Duration of Weekly RP Attacks (All Attacks) Change from Baseline, Mean: -3.55 min
  Average Duration of Weekly RP Attacks (All Attacks) Change from Baseline, Median: -7.63 min
  Average Duration of Weekly RP Attacks (All Attacks) Percent Change from Baseline, Mean: −23.71%
  Average Duration of Weekly RP Attacks (All Attacks) Percent Change from Baseline, Median: −21.20%
  Average Duration of Weekly RP Attacks (All Attacks), Mean: 21.66 min
  Average Duration of Weekly RP Attacks (All Attacks), Median: 30.45 min
[11]
  Average Duration of Weekly RP Attacks (All Attacks) Change from Baseline, Mean: -3.55 min
  Average Duration of Weekly RP Attacks (All Attacks) Change from Baseline, Median: -7.63 min
  Average Duration of Weekly RP Attacks (All Attacks) Percent Change from Baseline, Mean: −23.71%
  Average Duration of Weekly RP Attacks (All Attacks) Percent Change from Baseline, Median: −21.20%
  Average Duration of Weekly RP Attacks (All Attacks), Mean: 21.66 min
  Average Duration of Weekly RP Attacks (All Attacks), Median: 30.45 min
Cilnidipine or cilnidipine plus tadalafil (n=7), tadalafil monotherapy (n=2)
  duration of Raynaud attacks, direction of change: decrease greater than that seen in placebo treated patients
Cilnidipine or cilnidipine plus tadalafil treated patients
  patients in whom reduction in duration exceeded a 25% threshold: 4 of 7
